IC50 and inhibition data for eleven molecules are collected here from patent EP0443573A2, “HIV protease inhibitors containing derived amino acids” (BIO-MEGA/BOEHRINGER INGELHEIM RESEARCH INC., priority 1990, dated 1991).

The first experiment has as its target T1, HIV protease (Human immunodeficiency virus type 1 group M subtype B, UniProt P04585).
T1 construct: HIV protease was expressed in E. coli; made in house; host or cells: E. coli
Nature of the experiment: Recombinant HIV Protease HPLC Assay. The format is biochemical. Particulars: recombinant HIV protease expressed in E. coli; substrate VSFNFPQITL-NH₂; pH 5.5; 37° for 30 min; HPLC readout. The source says:
The procedure is based on the capacity of the test compound to inhibit enzymatic cleavage by HIV protease of a decapeptide (the substrate) having an amino acid sequence which includes a known HIV protease cleavage site of a HIV polyprotein; see H.G. Krausslich et al., Proc. Natl. Acad. Sci. USA, 86, 807 (1989). Details of this assay together with the results obtained for exemplified compounds of formula 1 are described in the examples hereinafter.
Recombinant HIV Protease HPLC Assay: Enzyme: HIV protease was expressed in E. coli [construct pBRT1 prt⁺, see W.G. Farmerie et al., Science, 236,305 (1987)], according to the following protocol: Unless stated otherwise, all solutions are aqueous solutions.
E. coli cells containing the pBRT1 prt⁺ plasmid were used to inoculate a seed culture media composed of Luria-Bertani Broth containing 100µg/mL of ampicillin. Flasks were incubated at 37° under agitation for 17 h. Production flasks containing sterile M9 broth, supplemented with 100µg/ml of ampicillin, were inoculated at a level of 1% (v/v) using the seed culture described above. Total volume in each production flask was 500 mL in a 2 L Erlenmeyer flask. Flasks were incubated at 37° under agitation until a cell concentration corresponding to an optical density (λ = […]) of 0.6 was reached (no dilution). This time span was routinely 3-4 h. Flasks were then supplemented with 5mM isopropylthiogalactoside (IPTG, Research Organics, Cleveland, Ohio, USA) and incubation was continued until the cell concentration reached an optical density of 0.2 at 16-fold dilution. Flasks were then supplemented with 1mM phenylmethylsulfonyl fluoride (PMSF) and rapidly chilled to 4°. The bacterial cells were recovered by centrifugation at 4°. The wet pellet was stored at -70°.
All steps below were performed at 4° unless otherwise indicated. Thawed cells were mixed with buffer A [50 mM […] HCl(Tris-HCl, pH 7.4); 0.6 mM ethylenediaminetetraacetic acid (EDTA); 0.375 M NaCl, 0.2% Nonidet P-40 ^R (BDH Chemicals Ltd., Poole, UK); 1mM PMSF], at a ratio of one part cells to nine parts buffer A. Diatomaceous earth (Celite 545 ^R , John Manville, Lompoc, CA, USA) was added at a ratio of two parts to one part of wet cell weight. The resulting slurry was homogenized at high speed (ca. 20,000 rpm) on a Waring ^R industrial blender for 8 x 15 sec. pulses. Cell debris/Celite ^R was collected by centrifugation and the resulting pellet was extracted with 4.5 parts of buffer A to one part wet solids using the homogenization procedure described above. Supernatants from both homogenization steps were combined and soluble protein was precipitated by the addition of solid (NH₄)₂SO₄ to yield a final concentration of 75% saturation. This mixture was agitated for 60 min and the precipitate was recovered by centrifugation. The resulting pellet was suspended in buffer B [50mM Tris-HCl, pH 8; 30 mM NaCl; 1 mM DL-dithiothreitol(DTT); 1 mM EDTA; 1 mM PMSF; 10% glycerol], and dialyzed for 18h against the same buffer.
An aliquot of the dialyzed extract containing 150 mg of the protein was loaded onto a Sephadex A25 ^R anion exchange column. (Pharmacia, Uppsala, Sweden) with bed dimensions of 70 cm length and 2.5 cm diameter. The sample was eluted isocratically with buffer B at a linear flow rate of 10 cm/h. Fractions containing HIV protease activity (see below for assay description) were combined, and soluble protein was precipitated by the addition of saturated aqueous (NH₄)₂SO₄ to yield a total (NH₄)₂SO₄ concentration of 85% saturation. Precipitated protein was removed by centrifugation and the resulting pellet was dissolved in buffer C[50 mM 2-(4-morpholino)ethanesulfonic acid (MES), pH 5.5; 150 mM NaCl; 1 mM DTT; 1 mM EDTA; 10% glycerol]. This preparation was dialyzed for 18h against buffer C, and then frozen at -70°. All crude extracts were purified by chromatography in aliquots containing 150 mg of protein in the same manner as described above. […]
Consider `CC(=O)NC(C(=O)NC(CNC(CC(C)C)C(=O)NC(CCC(=O)O)C(=O)NCCc1ccccc1)Cc1ccccc1)C(C)C` (stereo not drawn) [Ac-Val-Pheψ[CH2NH]Leu-Glu-NHCH2CH2Ph, Ac-Val-PheΨ[CH₂NH]Leu-Glu-NHCH₂CH₂Ph], for which the IC50 (in general, the concentration that inhibits the measured activity by half) is 0.016 µM. With `CC(C)(C)C(NC(=O)C(O)CO)C(=O)NC(CC1CCCCC1)C(O)CC(=O)NC(CCC(=O)O)C(=O)NCCc1ccccc1` [(S)-HOCH₂CH(OH)C(O)-Tbg-ACHPA-Glu-NHCH₂CH₂Ph], the IC50 was 0.0092 µM. As to `CC(=O)NC(C(=O)NC(CC1CCCCC1)C(O)CC(=O)NC(CCC(=O)O)C(=O)NCCc1ccccc1)C(C)(C)C` (stereo not shown) [Ac-Tbg-ACHPA-Glu-NHCH2CH2Ph, Ac-Tbg-ACHPA-Glu-NHCH₂CH₂Ph], the IC50 stood at 0.012 µM. For the molecule `COC(=O)CCC(NC(=O)CC(O)C(CC1CCCCC1)NC(=O)C(NC(C)=O)C(C)C)C(=O)NCCc1ccccc1` (stereo not shown) [Ac-Val-ACHPA-Glu(OMe)-NHCH2CH2Ph, Ac-Val-ACHPA-Glu(OMe)NHCH₂CH₂Ph], the IC50 came to 0.48 µM. As for `COC(=O)CCC(NC(=O)CC(O)C(CC1CCCCC1)NC(=O)C(NC(=O)C(O)CO)C(C)(C)C)C(=O)NCCc1ccccc1` [(S)-HOCH₂CH(OH)C(O)-Tbg-ACHPA-Glu(OMe)NHCH₂CH₂Ph], the IC50 stood at 0.2 µM.

As to `CC(=O)NC(C(=O)NC(CC1CCCCC1)C(O)CC(=O)NC(CCC(=O)O)C(=O)NCCc1ccccc1)C(C)C` (stereo not shown) [Ac-Val-ACHPA-Glu-NHCH2CH2Ph, Ac-Val-ACHPA-Glu-NHCH₂CH₂Ph], the IC50 is 0.031 µM. For the molecule `CC(=O)NC(C(=O)NC(CC1CCCCC1)C(O)CC(=O)NC(CC1CC1)C(=O)NCCc1ccccc1)C(C)(C)C` (stereo not shown) [Ac-Tbg-ACHPA-Cpa-NHCH2CH2Ph, Ac-Tbg-ACHPA-Cpa-NHCH₂CH₂Ph], the IC50 came out at 0.093 µM.

`CC(C)(C)CC(=O)NC(C(=O)NC(CC1CCCCC1)C(O)CC(=O)NC(CCC(=O)O)C(=O)NCCc1ccccc1)C(C)(C)C` (stereo not shown) [(CH3)3CCH2C(O)-Tbg-ACHPA-Glu-NHCH2CH2Ph, (CH₃)₃CCH₂C(O)-Tbg-ACHPA-Glu-NHCH₂CH₂Ph]: the IC50 came out at 0.11 µM. In the case of `CCC(CC)C(=O)NC(C(=O)NC(CC1CCCCC1)C(O)CC(=O)NC(CC1CC1)C(=O)NCCCc1ccccc1)C(C)C` (stereo not shown) [(C2H5)2CHC(O)-Val-ACHPA-Cpa-NHCH2CH2CH2Ph], the IC50 was 0.135 µM.

Turning to `COC(=O)CCC(NC(=O)CC(O)C(CC1CCCCC1)NC(=O)C(NC(C)=O)C(C)(C)C)C(=O)NCCc1ccccc1` (stereo not shown) [Ac-Tbg-ACHPA-Glu(OMe)-NHCH2CH2Ph, Ac-Tbg-ACHPA-Glu(OMe)-NHCH₂CH₂Ph], the IC50 stood at 0.15 µM. On the same count and under the same terms, the figure for `CCC(=O)NC(C(=O)NC(CC1CCCCC1)C(O)CC(=O)NC(CCC(=O)O)C(=O)NCCc1ccccc1)C(C)(C)C` (stereo not shown) [CH3CH2C(O)-Tbg-ACHPA-Glu-NHCH2CH2Ph, CH₃CH₂C(O)-Tbg-ACHPA-Glu-NHCH₂CH₂Ph] is 0.015 µM.

In a further experiment the test system is HIV. Nature of the experiment: Inhibition of syncytia formation by HIV in HTLV-I transformed C8166 cells (adapted plaque assay). Format: cell-based, H9/HTLV-IIIB. Particulars: Human immunodeficiency virus 1, IIIB, C8166, 72 h, read-out: inhibition of syncytia formation. The source says:
Typical of such procedures are those described by S. Harada and N. Yamamoto, Jpn. J. Cancer Res. (Gann), 76, 432 (1985), and S. Harada et al., Science 229, 563 (1985). An assay based on the latter procedures is described in the examples hereinafter.
The following protocol, used for screening antiviral effects of the compounds of formula 1, is adapted from a plaque assay utilizing HTLV-I transformed cells which was developed by Harada et al., supra. HTLV-I transformed cells are used in these assays because of the rapidity with which HIV will replicate in these cells. • 1. The test compound is dissolved in dimethylsulfoxide to a concentration of 5 mg/mL. The resultant solution can be stored at 4° until used. • 2. The resultant solution is diluted in RPMI 1640 (Gibco Laboratories, St. Lawrence, MA, USA) to four times (4x) the final concentration which is to be tested. Once diluted in RPMI 1640, the solution is used in the cell culture assay within 4 h. • 3. The 4x solution (50µL) is added to triplicate wells of a 96 well flat bottomed microtiter plate. RPMI […] also is added to control wells. • 4. […] Infectious titer of virus stocks are as previously determined by end point dilution on C8166 cells. […] Plates are then removed and centers of syncytia are counted in each well by low power phase contrast light microscopy. […] Percent inhibition of syncytia formation is calculated by the formula: [formula]
On to `COC(=O)CCC(NC(=O)CC(O)C(CC1CCCCC1)NC(=O)C(NC(=O)C(O)CO)C(C)(C)C)C(=O)NCCc1ccccc1` [(S)-HOCH₂CH(OH)C(O)-Tbg-ACHPA-Glu(OMe)NHCH₂CH₂Ph], for which the inhibition (commonly the percentage by which the read-out fell short of the control) at 20 µg/mL was determined as 100%. Turning to `CCC(=O)NC(C(=O)NC(CC1CCCCC1)C(O)CC(=O)NC(CCC(=O)O)C(=O)NCCc1ccccc1)C(C)(C)C` (stereo not shown) [CH3CH2C(O)-Tbg-ACHPA-Glu-NHCH2CH2Ph, CH₃CH₂C(O)-Tbg-ACHPA-Glu-NHCH₂CH₂Ph], the inhibition at 20 µg/mL was found to be 49%.
